Here are results for 41 compounds from PubChem BioAssay (NCI).

Molecules are shown by their SMILES.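 1) Cells in 96-well plates. 2) Compound, 48 h, 5 concentrations. 3) Linear interpolation between surrounding doses. 4) Unreached endpoint = highest concentration. TGI is the concentration that stops growth completely.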

Some test systems named below: MDA-N; RXF-631 renal; XF 498 CNS; DMS 273 small cell lung; DMS 114 small cell lung; LXFL 529 NSCLC; HOP-18 NSCLC.
Holding throughout (assay): NCI-60 cell line screen, 48 h

In the assay on MDA-N, `CC(=O)O[C@@H]1C[C@@]2(C)[C@@H]3CC=C4[C@@H](C[C@H](O)C(=O)C4(C)C)[C@]3(C)C(=O)C[C@]2(C)[C@H]1[C@@](C)(O)C(=O)/C=C/C(C)(C)OC(C)=O` gave a TGI of 14.8 µM.
For the compound `COc1ccc(OC(=O)CC2Cc3cc(OC)c(OC)c(OC)c3-c3ccc(SC)c(=O)cc32)cc1` (centres undefined), the TGI in the assay on RXF-631 renal is more than 100 µM; with XF 498 CNS, 7.8 µM; with DMS 273 small cell lung it was more than 100 µM; with DMS 114 small cell lung, 5.52 µM; in the assay on LXFL 529 NSCLC, 11.3 µM.
On to `CCCC(S(=O)(=O)c1ccccc1)S(=O)(=O)c1ccccc1`, for which the TGI in the assay on RXF-631 renal, in the assay on XF 498 CNS, with DMS 273 small cell lung, in the assay with DMS 114 small cell lung and in the assay on LXFL 529 NSCLC was more than 100 µM throughout.
With `Nc1nc(N)c(CCCCc2ccccc2)c(N)n1`, the TGI in the assay on XF 498 CNS, with DMS 273 small cell lung, in the assay with DMS 114 small cell lung, in the assay on LXFL 529 NSCLC and with MDA-N was more than 100 µM each time.
As to `ClC1=C(Cl)C(Cl)(Cl)c2c3c(c4c(c21)C(Cl)(Cl)C(Cl)=C4Cl)C(Cl)(Cl)C(Cl)=C3Cl`, the TGI with XF 498 CNS, in the assay with DMS 273 small cell lung, in the assay with DMS 114 small cell lung and in the assay on LXFL 529 NSCLC was more than 100 µM in each case.
For `Cc1cccc(NC(=O)/C(=N\N)C(c2cnc3ccc([N+](=O)[O-])cc3n2)[N+](=O)[O-])c1C` (centres undefined), the TGI with HOP-18 NSCLC, in the assay with RXF-631 renal, in the assay on XF 498 CNS, in the assay on DMS 273 small cell lung, in the assay with DMS 114 small cell lung and with LXFL 529 NSCLC was more than 100 µM each time.
Turning to `O=C1c2c(Br)sc(Br)c2[C@@H](NC(=O)C(F)(F)F)C1Br` (some centres undefined), the TGI in the assay with MDA-N was 9.14 µM.
On to `O=C1C=C(O)C(=Cc2c(O)cc(O)cc2O)C(O)=C1`, for which the TGI in the assay on HOP-18 NSCLC, with RXF-631 renal, in the assay with XF 498 CNS, with DMS 273 small cell lung, with DMS 114 small cell lung and in the assay on LXFL 529 NSCLC was more than 100 µM in each case.
As to `COc1cc(C2(C)SCCCS2)cc(OC)c1OC`, the TGI in the assay on HOP-18 NSCLC, in the assay on RXF-631 renal, with DMS 273 small cell lung, in the assay with DMS 114 small cell lung and in the assay on LXFL 529 NSCLC was more than 100 µM in each case.
Regarding `Oc1cc(-n2cccn2)c(O)cc1-n1cccn1`, the TGI was more than 100 µM in the assay with HOP-18 NSCLC; more than 100 µM in the assay on RXF-631 renal; 32.7 µM in the assay on XF 498 CNS; more than 58.2 µM in the assay with DMS 273 small cell lung; more than 67.6 µM in the assay on DMS 114 small cell lung; 34.7 µM in the assay on LXFL 529 NSCLC. Moreover, the TGI with MDA-N was determined as 33.5 µM.
`O=C(O)c1ccccc1NC(=S)c1ccccc1` came in with a TGI in the assay on MDA-N of more than 100 µM.
Consider `c1cc(-c2cn3c(n2)SCC3)ccn1`, for which the TGI with HOP-18 NSCLC is more than 100 µM; in the assay on XF 498 CNS, more than 100 µM; with DMS 273 small cell lung it was 93.1 µM; with DMS 114 small cell lung, more than 89.6 µM; in the assay with LXFL 529 NSCLC it was more than 100 µM.
`Fc1cccc(F)c1C(Nc1nncs1)Nc1nncs1` yielded a TGI in the assay on MDA-N of more than 100 µM.
`CC(=O)/C(=C\c1ccccc1O)C(=O)Nc1ccccc1C`: the TGI is more than 100 µM in the assay on HOP-18 NSCLC, 28.1 µM with XF 498 CNS, more than 100 µM with DMS 114 small cell lung and 98.6 µM in the assay on LXFL 529 NSCLC.
Take `Clc1ccc(C2ON=C(c3ccccc3)N2C23CC4CC(CC(C4)C2)C3)cc1` (centres undefined): the TGI with MDA-N was more than 10 µM.
Still for that read-out and setting: the figure for `COc1ccc(C(=O)/C=C/c2ccc(OCC#N)cc2)cc1` is more than 10 µM.
In the case of `Cc1ccccc1-n1c(N)c(-c2nc3ccccc3[nH]2)sc1=S`, the TGI came out at 72.8 µM in the assay on HOP-18 NSCLC; 49.1 µM in the assay with RXF-631 renal; 35 µM with DMS 273 small cell lung; 59 µM in the assay with DMS 114 small cell lung; 50.4 µM with LXFL 529 NSCLC.
For the compound `CC1=C(C(=O)Nc2ccc(Cl)c(Cl)c2)C(c2ccc([N+](=O)[O-])cc2)C(C(=O)Nc2ccc(Cl)c(Cl)c2)=C(C)N1`, the TGI in the assay on HOP-18 NSCLC is 19.2 µM; in the assay on RXF-631 renal, 6.69 µM; in the assay with XF 498 CNS, 4.38 µM; with DMS 273 small cell lung, 9.14 µM; with DMS 114 small cell lung, 9.66 µM; in the assay with LXFL 529 NSCLC it was 11.8 µM.
Take `O=C1OC(=O)c2c1c(-c1ccccc1)nc1ccccc21`: the TGI in the assay with RXF-631 renal, in the assay on XF 498 CNS, in the assay on DMS 273 small cell lung, in the assay with DMS 114 small cell lung and in the assay on LXFL 529 NSCLC was more than 100 µM in each case.
Consider `c1ccc2c(c1)CCc1c-2n[nH]c1-c1[nH]nc2c1CCc1ccccc1-2`, for which the TGI in the assay with HOP-18 NSCLC, with RXF-631 renal, with XF 498 CNS, in the assay with DMS 273 small cell lung, with DMS 114 small cell lung and in the assay with LXFL 529 NSCLC was more than 100 µM in each case.
For `O=Cc1ccc2c(c1I)OCO2`, the TGI in the assay on HOP-18 NSCLC and in the assay on DMS 273 small cell lung was more than 100 µM in each case.
As for `N#CCN1C(=O)c2cc([N+](=O)[O-])cc3cc([N+](=O)[O-])cc(c23)C1=O`, the TGI in the assay with HOP-18 NSCLC was more than 100 µM; in the assay on RXF-631 renal, more than 60.6 µM; in the assay on XF 498 CNS it was 25 µM; in the assay on DMS 273 small cell lung, more than 100 µM; with DMS 114 small cell lung it was 37.5 µM; in the assay with LXFL 529 NSCLC, more than 50.6 µM.
Turning to `O=C1c2ccccc2N2OC3(N4CCCC4)CCCCC3C12c1ccccc1` (centres undefined), the TGI with HOP-18 NSCLC is more than 100 µM; with XF 498 CNS, 41.1 µM; in the assay with DMS 273 small cell lung it was 30.9 µM; in the assay with DMS 114 small cell lung, 28.4 µM; in the assay on LXFL 529 NSCLC, 27.7 µM.
The matching figures for `CCOC(=O)/C(I)=C/c1cc(OC)c(OC)c(OC)c1`: 24 µM, 27.5 µM, 22.7 µM, 9.49 µM and 26.8 µM.
For the compound `COC(=O)C(C(=O)C(=O)Nc1ccc([N+](=O)[O-])cc1)c1nc2ccc([N+](=O)[O-])cc2[nH]c1=O` (centres undefined), the TGI in the assay with HOP-18 NSCLC, with RXF-631 renal, in the assay on DMS 273 small cell lung, in the assay with DMS 114 small cell lung and in the assay on LXFL 529 NSCLC was more than 100 µM each time.
For the compound `COc1ccc(-c2[nH]c3ccccc3c2CCNS(=O)(=O)c2ccc(C)cc2)cc1`, the TGI in the assay on HOP-18 NSCLC, in the assay on RXF-631 renal, in the assay on XF 498 CNS, in the assay with DMS 273 small cell lung, with DMS 114 small cell lung and in the assay with LXFL 529 NSCLC was more than 10 µM each time.
Take `CN=C1OC2(c3ccccc3)C3=C(OC(=NC)N2C)C(=O)OC3(c2ccccc2)N1C` (centres undefined): the TGI with MDA-N is more than 100 µM.
Regarding `O=C(/C=C/c1ccc(Cl)c(Cl)c1)c1cccc2ccccc12`, the TGI with HOP-18 NSCLC turned out to be 31.1 µM; in the assay with RXF-631 renal, 33.1 µM; in the assay with DMS 273 small cell lung, 14.7 µM; with DMS 114 small cell lung it was 9.51 µM; with LXFL 529 NSCLC, 6.64 µM.
As for `CNNC(=NS(=O)(=O)c1cc(C#N)c(NNC)cc1S)NNC`, in the assay with MDA-N, the TGI is more than 10 µM.
For the compound `N#CC1(C#N)C(c2ccccc2)C=CC12OCCCO2` (centres undefined), the TGI is more than 100 µM in the assay with HOP-18 NSCLC; more than 100 µM in the assay on RXF-631 renal; more than 100 µM in the assay with XF 498 CNS; more than 100 µM in the assay with DMS 273 small cell lung; 67.8 µM in the assay on DMS 114 small cell lung; 95.2 µM with LXFL 529 NSCLC.
Regarding `Cc1ccc(NC(=O)C(=O)C(C(=O)/C=C/c2ccccc2)C2OC(=O)c3ccccc32)c(C)c1` (centres undefined), the TGI in the assay with RXF-631 renal, with XF 498 CNS, in the assay on DMS 114 small cell lung and with LXFL 529 NSCLC was more than 100 µM throughout.
As for `CC1=C(CC2C(=O)N(c3ccccc3)S(=O)(=O)NC2C)C(=O)N(c2ccccc2)S(=O)(=O)N1C` (centres undefined), the TGI with RXF-631 renal, in the assay on XF 498 CNS, with DMS 273 small cell lung, in the assay on DMS 114 small cell lung and in the assay with LXFL 529 NSCLC was more than 100 µM in each case.
As to `O=C(NCCNCCO)c1cccc2ccc(-c3ccccc3)nc12`, the TGI was found to be 45.8 µM in the assay with HOP-18 NSCLC, 12.1 µM with RXF-631 renal, 14.1 µM in the assay with DMS 273 small cell lung and 19.8 µM with DMS 114 small cell lung.
Consider `COc1ccc(-c2cc(=O)c3c(O)cccc3o2)c(OC)c1OC`, for which the TGI in the assay with RXF-631 renal, in the assay on XF 498 CNS, with DMS 273 small cell lung, in the assay with DMS 114 small cell lung and with LXFL 529 NSCLC was more than 100 µM each time.
As for `NNc1nnc(-c2nnc(NN)o2)o1`, the TGI with MDA-N was more than 10 µM.
As for `Cc1cc2c(c(C(N)=O)c1C)-c1cc(Cl)cc(Cl)c1C2=O`, the TGI in the assay with HOP-18 NSCLC, in the assay on DMS 273 small cell lung, with DMS 114 small cell lung and with LXFL 529 NSCLC was more than 100 µM in each case.
On to `C=CCC1(C)CCCN(Cc2ccccc2)C1=O` (centres undefined), for which the TGI in the assay with MDA-N was more than 10 µM.
For the compound `O=C(c1ccccc1)c1c(CC(O)c2ccncc2)n(C(=O)c2ccccc2)c2ccccc12` (centres undefined), the TGI in the assay with DMS 273 small cell lung was determined as 37.1 µM; in the assay on DMS 114 small cell lung it was 40.2 µM; with LXFL 529 NSCLC, 45.9 µM.
The compound `COc1ccc(NC(=O)C(=O)/C=C(\O)c2ccccc2)cc1` had a TGI in the assay with MDA-N of more than 10 µM.
As to `CCOC(=O)C1Nc2ccccc2[C@H]2OCC[C@@H]12` (some centres undefined), the TGI in the assay on HOP-18 NSCLC, in the assay with XF 498 CNS and with DMS 273 small cell lung was more than 100 µM each time.
In the assay with MDA-N, `O=C(O)c1cc(CCc2cc(O)ccc2O)ccc1O` had a TGI of 27.1 µM.
